Laboratory results as given in patent US11396016B2, “System and method for a biomimetic fluid processing” (The Brigham and Women's Hospital, Inc., priority 2013, dated 2022).

System: MKs
Test: Shear-induced proPLT production and PLT release by MKs in the microfluidic device (live-cell microscopy)
Type: cell-based, mouse
Details: for PLT release: under both static and physiological shear conditions; for shear-induced proPLT production: physiological shear
Method: Devices were coated with a 0.22 μm filtered 10% BSA solution (Millipore, Billerica, Mass.) for 30 minutes to prevent direct cell contact with glass. Primary MKs and media were infused in the first inlet 118 and second inlet 122, respectively, at a rate of 12.5 μL/hour using a two-syringe microfluidic pump (Harvard Apparatus, Holliston, Mass.). When the first outlet 120 is closed, both input solutions are redirected toward the second outlet 124 causing primary MKs to trap.
For shear cultures, MKs were loaded onto ‘naked’ microfluidic devices (only BSA-coated), and the infusion rate was doubled incrementally from 12.5 μL/hr to 200 μL/hr over a 2 hour period. For static cultures, isolated MKs were pipetted into chambers formed by mounting a glass coverslide coated with 3% BSA onto a […] with a 1 cm hole and cultured for 24 hours. Both static and shear cultures were maintained at 37 degrees C. and 5 percent CO2 and examined on a Zeiss Axiovert 200 (Carl Zeiss, Thornwood, N.Y.) equipped with 10× (numerical aperature, 0.30) Plan-Neofluar air objective. Differential interference contrast (DIC) images were obtained using CCD camera (Hamamatsu Photonics, Boston, Mass.) at either 2 second (shear cultures) or 20 minute (static cultures) intervals. Images were analyzed using the Metamorph version 7.7.2.0 image analysis software (Molecular Devices, Sunnyvale, Calif., USA) and ImageJ software version 1.47p. ProPLT extension rates were determined manually for over 200 MKs from at least three independent samples. For PLT spreading experiments, effluent was collected from microfluidic devices after 2 hours and pipetted into uncoated static culture chambers, described above. PLTs were permitted to contact glass by gravity sedimentation and spreading was captured at 5 second intervals over a 5 minute period.
In vivo BM MKs extend proPLTs in the direction of blood flow and release PLTs, proPLTs, large cytoplasmic fragments (prePLTs), and even whole MKs into sinusoidal blood vessels which may be trapping in the pulmonary microvascular bed, or otherwise maturing in the circulation. To determine the effect of physiological shear on PLT production, mouse fetal liver culture-derived (mFLC) MKs were isolated on culture day 4 and characterized by size and ploidy before being infused into the microfluidic device (shown in FIG. 3A).
While shear rates were kept constant, proPLT extension rates varied at different positions along the shaft, predictive of a regulated cytoskeletal driven mechanism of proPLT elongation (shown in FIG. 4C). […]

Structure (SMILES)	PLT release (1 mM EHNA)	shear-induced proPLT production (MKs incubated with 1 mM EHNA prior to infusion in microfluidic device)	PLT release (5 μM Jas)	shear-induced proPLT production (MKs incubated with 5 μM Jas prior to infusion in microfluidic device)
CCCCCC[C@@H]([C@@H](C)O)n1cnc2c(N)ncnc21 (racemic) [EHNA]	inhibited	inhibit		
C/C1=C\[C@H](C)C[C@H](C)OC(=O)C[C@H](c2ccc(O)cc2)NC(=O)[C@@H](Cc2c(Br)[nH]c3ccccc23)N(C)C(=O)[C@H](C)NC(=O)[C@@H](C)C1 [Jas, Jasplankinolide]			inhibited	inhibit
